Entries after “also recorded” stand apart in the source; their conditions may differ. [BANA] = cross-linked (bridged) nucleoside of the invention; l = locked nucleic acid (LNA); d = 2'-deoxy (DNA)
System: mice (C57BL/6J, male)
Test: Toxicity reducing effect: serum AST/ALT and death in mice
Assay type: in vivo
Conditions: 20 mg/kg intraperitoneally
Description: The test oligonucleotides (20 mg/kg) shown in Table 45 were administered intraperitoneally to six-week-old mice (C57BL/6J, male) (5 mice/group). After 96 hours, blood was collected under inhalation anesthesia (isoflurane), and the mice were exsanguinated. Then, the activities of aspartate transaminase (AST) and alanine transaminase (ALT) in serum were measured using an automated analyzer (FUJI DRI-CHEM 4000V manufactured by FUJIFILM).

[1] = 5 mice/group, serum after 96 hours, Means ± SD

With “5′-d(^LG^^LT^^LT^t^g^c^c^a^c^c^^LC^^LT^^LA)-3′ (antisense GTTATGCCACCCTA; sugars from the 5' end l3 d8 l3, all phosphorothioate, methylation of C not given here) [(29), reference compound]” the “Remarks (death of mice)” value (5 mice/group, 96 hours) was “all of the five mice died; also recorded: All 5 died”.
“5′-d(^LG^T^T^a^t^g^c^c^a^c^c^^LC^T^^LA)-3′ (antisense GTTATGCCACCCTA; sugars from the 5' end l[BANA][BANA]ddddddddl[BANA]l, all phosphorothioate, methylation of C not given here) [(28), T: BANA-T3]” was tested, and the ALT [1] was 36.8 ± 9.5 IU/L, the AST [1] was 223.2 ± 102.6 IU/L and the “increase in ALT and AST” value (after 96 hours, versus saline) was “almost no increase in ALT and AST”.
